Measurements: patent US20130143929A1, “FUNGICIDAL IMIDAZOLES” (EI DU PONT DE NEMOURS AND COMPANY, priority 2010, published 2013)
Marks after values point to notes of the source that are not given here.

Tests used:
Format in all cases: in vivo
Settings in all cases: 100 = 100% disease control
[1] = tested on: Puccinia recondite f. sp. tritici (the causal agent of wheat leaf rust); test: Test A: wheat leaf rust, preventive spray on wheat seedlings, visual disease rating
How it was run: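 This was a preventive test: Puccinia recondite f. sp. tritici inoculum was applied one day after compound spray to run-off. Test suspensions were made in 50/50 acetone/water with 250 ppm surfactant, at 200 ppm (800 g/ha equivalent) or 40 ppm. Visual ratings of % disease control relative to controls were made after 24 h of saturated humidity and 7 growth-chamber days, all at 20° C.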

[2] = tested on: Septoria tritici (the causal agent of wheat leaf blotch); test: Test B: wheat leaf blotch, preventive spray on wheat seedlings, visual disease rating
How it was run: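 Preventive test: Septoria tritici spores applied one day after run-off spraying of seedlings (200 ppm equals 800 g/ha; some tests 40 ppm). After 48 h at 24 °C saturated atmosphere and 19 days at 20 °C, disease scored visually as % control relative to untreated plants.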

[3] = tested on: Botrytis cinerea (the causal agent of tomato Botrytis); test: Test C: tomato Botrytis, preventive spray on tomato seedlings, visual disease rating
How it was run: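 Preventive test: B. cinerea spore inoculation one day after tomato seedlings were sprayed to run-off with compound suspended in 50/50 acetone–water plus 250 ppm surfactant. Plants held 48 h at 20° C in saturated air, then 3 days at 24° C; visual ratings scored 100 (full control) to 0 versus controls; some entries used 40 ppm.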

[4] = tested on: Blumeria graminis f. sp. tritici (also known as Erysiphe graminis f. sp. tritici, the causal agent of wheat powdery mildew); test: Test D: wheat powdery mildew, preventive spray on wheat seedlings, visual disease rating
How it was run: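 Preventive test: seedlings sprayed to run-off and inoculated with powdery mildew spores one day later. Suspensions were made in 50/50 acetone/water with 250 ppm Trem 014 surfactant (200 ppm equals 800 g/ha). Visual ratings after 8 days at 20 °C give percent disease control versus controls.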

[5] = no asterisk: standard test suspension concentration, 0 = no control relative to controls
[6] = asterisk: 40 ppm test suspension, 0 = no control

| SMILES | Test A rating (% disease control, wheat leaf rust) [1, 5] [%] | Test B rating (% disease control, wheat leaf blotch) [2, 5] [%] | Test C rating (% disease control, tomato Botrytis) [3, 5] [%] | Test D rating (% disease control, wheat powdery mildew) [4, 5] [%] | Test A rating (% disease control, wheat leaf rust) [1, 6] | Test B rating (% disease control, wheat leaf blotch) [2, 6] | Test C rating (% disease control, tomato Botrytis) [3, 6] | Test D rating (% disease control, wheat powdery mildew) [4, 6] |
| --- | --- | --- | --- | --- | --- | --- | --- | --- |
| Cc1nc(Br)c(C(O)c2ccc(F)cc2F)n1-c1c(F)cccc1Br (centres unmarked) [compound 393] | 100 | 100 | 100 | 97 |  |  |  |  |
| Cc1nc(Br)c(C(O)c2ccc(F)cc2F)n1-c1c(F)cc(F)cc1Br (centres unmarked) [compound 394] | 100 | 100 | 100 | 72 |  |  |  |  |
| Cc1cc(F)ccc1C(O)c1cnc(C)n1-c1ccc(F)cc1Cl (centres unmarked) [compound 395] | 99 | 100 | 21 | 35 |  |  |  |  |
| Cc1ncc(C(O)c2ccc(F)cc2F)n1-c1ccc(F)cc1Cl (centres unmarked) [compound 396] | 100 | 100 | 87 | 0 |  |  |  |  |
| Cc1cc(F)ccc1C(O)c1c(Br)nc(C)n1-c1ccc(F)cc1Cl (centres unmarked) [compound 397] | 100 | 100 | 100 | 73 |  |  |  |  |
| Cc1cc(F)ccc1C(O)c1c(Cl)nc(C)n1-c1ccc(F)cc1Cl (centres unmarked) [compound 398] | 100 | 100 | 46 | 0 |  |  |  |  |
| Cc1nc(Br)c(C(O)c2ccc(F)cc2F)n1-c1ccc(F)cc1Cl (centres unmarked) [compound 399] | 100 | 100 | 99 | 90 |  |  |  |  |
| Cc1nc(Br)c(C(O)c2ccc(F)cc2F)n1-c1c(F)cccc1Cl (centres unmarked) [compound 400] |  |  |  |  | 100* % | 100* % | 100* % | 100* % |
| COc1cc(F)c(-n2c(C)nc(Cl)c2C(O)c2ccc(F)cc2Cl)c(F)c1 (centres unmarked) [compound 403] |  |  |  |  | 99* % | 100* % | 8* % | 0* % |
| Cc1cc(F)ccc1C(O)c1cnc(C)n1-c1c(F)cccc1Br (centres unmarked) [compound 405] | 99 | 94 | 9 | 0 |  |  |  |  |
| Cc1cc(F)ccc1C(O)c1c(Br)nc(C)n1-c1c(F)cccc1Br (centres unmarked) [compound 406] | 100 | 100 | 43 | 56 |  |  |  |  |
| Cc1cc(F)ccc1C(O)c1c(Cl)nc(C)n1-c1c(F)cccc1Br (centres unmarked) [compound 407] | 99 | 100 | 52 | 0 |  |  |  |  |
| Cc1cc(F)ccc1C(O)c1c(Br)nc(C)n1-c1c(F)cc(F)cc1Br (centres unmarked) [compound 408] | 100 | 100 | 99 | 56 |  |  |  |  |
| Cc1ncc(C(O)c2ccc(F)cc2F)n1-c1c(F)cccc1Br (centres unmarked) [compound 409] | 99 | 100 | 57 | 0 |  |  |  |  |
| Cc1ncc(C(O)c2ccc(F)cc2F)n1-c1c(F)cc(F)cc1Br (centres unmarked) [compound 410] | 100 | 100 | 97 | 13 |  |  |  |  |
| COc1cc(F)c(-n2c(C)nc(Cl)c2C(O)c2ccc(F)cc2F)c(F)c1 (centres unmarked) [compound 411] |  |  |  |  | 100* % | 100* % | 85* % | 50* % |
| COc1cc(F)c(-n2c(C)nc(Br)c2C(O)c2ccc(F)cc2F)c(F)c1 (centres unmarked) [compound 412] |  |  |  |  | 100* % | 100* % | 0* % | 0* % |
| Cc1ncc(C(O)c2cccnc2F)n1-c1c(F)cc(F)cc1F (centres unmarked) [compound 413] | 88 | 98 | 0 | 0 |  |  |  |  |
| Cc1nc(Br)c(C(O)c2cccnc2F)n1-c1c(F)cc(F)cc1F (centres unmarked) [compound 414] | 100 | 100 | 67 | 13 |  |  |  |  |
| Cc1cc(F)ccc1C(O)c1cnc(C)n1-c1ccc(F)cc1F (centres unmarked) [compound 415] | 74 | 18 | 0 | 0 |  |  |  |  |
